One substance from patent US9340788B2 (priority 2007, dated 2016) can be followed below.

One assay concerns HCMV. Briefly: Viral attachment and internalization assay (pp65 immunofluorescence). The assay is classed as cell-based, Human cytomegalovirus. The procedure:
(A) HEL cells were pretreated with PBS (20 min 4° C.), IMC-3G3 (2 h, 37° C., 10 μg/ml), or PDGF-AA (20 min, 4° C., 10 ng/ml) prior to infection with HCMV (MOI of 1, 4° C., 1 h). Cells were returned to 37° C. for 30 minutes, and processed for pp65^HCMV and PDGFRα double immunofluorescence. […] All conditions were assayed in triplicate cultures. One hundred cells in 4 low magnification fields were counted. Bars represent SD.
Viral Attachment and Internalization Assays. Mouse fibroblasts and HEL cells (72 hours following siRNA transfections) were incubated with HCMV (MOI of 0.5) or mock treated for 1 hour at 4° C., after which cells were returned to 37° C. for 15, 30, or 60 min. Cells were fixed using methanol (20 min) and processed for pp65 immunofluorescence. Four low power fields were counted for each condition and pp65 positive were recorded for each 100 cells. Internalization assays were repeated twice.

The target in a further assay is T1, human PDGFRα (Homo sapiens, UniProt P16234).
T1 construct: HEL cells that endogenously express PDGFRα; endogenous in cells; host or cells: HEL human embryonic lung fibroblasts (ATCC)
T1 sequence (P16234 24-1089): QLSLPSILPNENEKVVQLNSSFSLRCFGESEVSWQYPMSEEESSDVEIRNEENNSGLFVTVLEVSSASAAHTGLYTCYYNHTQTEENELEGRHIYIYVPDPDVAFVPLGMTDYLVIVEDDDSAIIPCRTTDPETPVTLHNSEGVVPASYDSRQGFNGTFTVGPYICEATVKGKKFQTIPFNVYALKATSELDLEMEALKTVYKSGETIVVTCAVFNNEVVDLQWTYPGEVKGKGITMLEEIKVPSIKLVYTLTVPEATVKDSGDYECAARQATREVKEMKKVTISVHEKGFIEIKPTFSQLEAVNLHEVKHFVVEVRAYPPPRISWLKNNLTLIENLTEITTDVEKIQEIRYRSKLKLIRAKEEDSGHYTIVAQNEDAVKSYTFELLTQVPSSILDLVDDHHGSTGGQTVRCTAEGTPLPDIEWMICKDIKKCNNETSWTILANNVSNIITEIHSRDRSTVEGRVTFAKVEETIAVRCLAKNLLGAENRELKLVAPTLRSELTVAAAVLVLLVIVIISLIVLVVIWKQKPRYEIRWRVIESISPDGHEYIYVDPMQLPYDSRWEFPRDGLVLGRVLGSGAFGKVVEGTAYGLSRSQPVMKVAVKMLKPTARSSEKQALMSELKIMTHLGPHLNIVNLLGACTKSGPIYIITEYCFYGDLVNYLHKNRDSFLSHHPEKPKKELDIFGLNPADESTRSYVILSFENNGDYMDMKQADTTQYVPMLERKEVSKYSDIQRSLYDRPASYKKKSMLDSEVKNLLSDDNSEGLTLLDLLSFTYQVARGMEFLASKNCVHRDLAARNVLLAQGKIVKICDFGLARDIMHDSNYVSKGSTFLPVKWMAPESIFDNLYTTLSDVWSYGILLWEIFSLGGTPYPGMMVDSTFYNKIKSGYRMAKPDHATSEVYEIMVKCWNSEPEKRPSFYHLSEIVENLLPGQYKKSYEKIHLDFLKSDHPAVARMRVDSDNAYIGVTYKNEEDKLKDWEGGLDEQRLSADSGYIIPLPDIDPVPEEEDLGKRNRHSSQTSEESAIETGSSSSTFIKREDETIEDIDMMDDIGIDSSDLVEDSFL
Briefly: Human Phospho-PDGFRα ELISA. It is filed as cell-based. Conditions: HEL; Towne, AD169 and TR strains; IMC-3G3 10 μg/ml, 2 h pretreatment; HCMV MOI=1, 10 min. The procedure: (A) HEL cells stimulated with HCMV or PDGF-AA were subjected to immunoprecipitation and western blot analyses with indicated antibodies. (B) Phospho-PDGFRα ELISA of cells+/−pretreatment with IMC-3G3 (10 μg/ml, 2 h) followed by HCMV (MOI=1) or PDGF (10 ng/ml) for 10 min. Mean values (n=6)±S.D are shown. (C) Western blot of HEL mock, HCMV, or PDGF-AA stimulated (10 min), +/−IMC-3G3 (2 μg/ml) or Gleevec® (Imatinib) (100 nM). The same membrane was used for p-Akt^Ser 473 and Akt.
(A) Immunofluorescence detection of gB (upper panels) and PDGFRα (lower panels) in PDGFRα KO cells and PDGFRα overexpressing (OE) cells, following incubation with the gB peptide or mock treatment. Reduced PDGFRα surface staining in gB-treated cells is likely due to receptor internalization. (B) and (C) Immunoprecipitation of PDGFRα and gB from HEL lysates and full-length soluble gB alone or pre-incubated together. Immunoprecipitates were subjected to western blot with the indicated antibodies. (D) ELISA of hPDGFRα phosphorylation after HCMV stimulation (MOI=1), PDGF (10 ng/ml) or recombinant soluble gB (30 μg/ml) in presence or absence of gB neutralizing antibodies 7-17 and Mab 758 (5 μg/ml); bars, ±S.D. (E) Portions of same lysates used in (D) were analyzed by western blot with indicated antibodies.
Human Phospho-PDGFRα ELISA. […] Reaction products were read using a microplate reader set at 450 nm. […]
(In an ELISA, binding on a coated surface is turned into a signal by an enzyme label.)

The test system of a further assay is PI3-K/Akt signaling. The assay is classed as cell-based, human. Particulars: HEL; 10 min stimulation; IMC-3G3 2 μg/ml or Gleevec 100 nM; p-Akt Ser 473.

Method for PI3-K/Akt signaling: HEL cells pretreated with blocking reagents (as indicated; 30 min, 37 C) were stimulated for 10 min with HCMV, PDGF-AA (5 ng/ml), or mock-treated. Cell lysates were collected in RIPA buffer (supplemented with protease and phosphatase inhibitors) and subjected to Western blot analysis.
For stimulation experiments, cells were serum-starved for 24 h, followed by stimulation with HCMV (MOI of 0.5), PDGF-AA (5-10 ng/ml, from R&D Systems), or mock, for 10 minutes. In some cases, cells were pre-treated with IMC-3G3 (ImClone Inc.) at 10 g/ml (2 or 12 h) or Gleevec® (100 nM, 1 h) prior to HCMV exposure. Cell lysates were analyzed by SDS-PAGE. Antibodies used were as follows: polyclonal anti-PDGFRα ( 1/500), phosphor-Tyrosine clone 4G10 ( 1/1000), and monoclonal anti-p85 PI3-K ( 1/1000), (Upstate Biotechnology), anti HCMV IE1 MAB810 (Chemicon; 1/1000), anti HCMV pp65 (Novocastra, 1/1000), anti-phosphor-PDGFRα ( 1/500, pTyr 754), anti-phosphor-Akt (Ser 473, 1/1000) and total Akt ( 1/1000; all from Cell Signaling). Anti-actin polyclonal control antibody was used ( 1/500, Sigma). Immunoprecipitations were performed using protein G (Pierce) according to manufacturer's instructions.

Consider “IMC-3G3: humanized PDGFRα blocking antibody (ImClone Inc.)”, for which, in the assay with HCMV (HEL cells, IMC-3G3 2 h, 37° C., 10 μg/ml, PDGF-AA 20 min, 4° C., 10 ng/ml, HCMV MOI of 1, 30 min at 37° C.), the “inhibition of HCMV entry (pp65 positive cells)” value is roughly 45%. Besides, the HCMV viral internalization result with HCMV (human epithelial, endothelial, and fibroblast cells) was “completely inhibited”. Further, the “PDGFRα phosphorylation induced by HCMV strains” value with human PDGFRα was “significantly inhibited”. In addition, the “Akt phosphorylation induced by either HCMV or PDGF-AA” value with PI3-K/Akt signaling is recorded as “abolished”.
